In patent US7074605B2 (The Curators of the University of Missouri, priority 1997, dated 2006):

Target: Clostridium perfringens α-N-acetylgalactosaminidase (Clostridium perfringens, UniProt I1SB20)
Assay type: biochemical

Clostridium perfringens α-N-acetylgalactosaminidase, sequence (I1SB20 1-629 limits assumed): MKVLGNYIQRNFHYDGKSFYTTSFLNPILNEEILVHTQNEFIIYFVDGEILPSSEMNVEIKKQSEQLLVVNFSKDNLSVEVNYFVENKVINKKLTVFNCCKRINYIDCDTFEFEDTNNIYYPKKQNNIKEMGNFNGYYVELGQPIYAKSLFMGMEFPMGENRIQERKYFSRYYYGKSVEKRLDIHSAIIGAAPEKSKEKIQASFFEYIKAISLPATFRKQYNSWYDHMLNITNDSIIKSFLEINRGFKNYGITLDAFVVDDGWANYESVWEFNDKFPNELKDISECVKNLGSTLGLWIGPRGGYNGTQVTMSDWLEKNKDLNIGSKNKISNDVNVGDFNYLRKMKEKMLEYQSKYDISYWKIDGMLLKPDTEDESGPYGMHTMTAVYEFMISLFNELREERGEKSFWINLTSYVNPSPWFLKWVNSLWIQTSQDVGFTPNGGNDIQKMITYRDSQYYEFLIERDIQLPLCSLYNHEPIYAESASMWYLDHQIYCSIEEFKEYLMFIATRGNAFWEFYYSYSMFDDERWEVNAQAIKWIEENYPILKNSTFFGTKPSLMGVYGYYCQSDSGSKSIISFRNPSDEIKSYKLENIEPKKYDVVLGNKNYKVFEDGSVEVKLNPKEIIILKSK

| SMILES | Activity |
| --- | --- |
| C[C@@H]1O[C@H](Oc2ccc([N+](=O)[O-])cc2)[C@@H](O)[C@H](O)[C@@H]1O [PNP-β-L-fucopyranoside] | <0.001 U/ml |
| O=[N+]([O-])c1ccc(O[C@H]2O[C@H](CO)[C@@H](O)[C@H](O)[C@@H]2O)cc1 [PNP-α-D-mannopyranoside] | <0.001 U/ml |
| CC(=O)N[C@H]1[C@H](Oc2ccc([N+](=O)[O-])cc2)O[C@H](CO)[C@H](O)[C@@H]1O [PNP-N-acetyl-β-D-galactosaminide] | <0.001 U/ml |
| O=[N+]([O-])c1ccc(O[C@@H]2OC[C@H](O)[C@H](O)[C@H]2O)cc1 [PNP-α-L-arabinopyranoside] | <0.001 U/ml |
| Cc1cc(=O)oc2cc(O[C@@H]3O[C@H](CO)[C@H](O)[C@H](O)[C@H]3O)ccc12 [4MU-α-D-galactopyranoside] | <0.001 U/ml |
| C[C@@H]1O[C@@H](Oc2ccc([N+](=O)[O-])cc2)[C@@H](O)[C@H](O)[C@@H]1O [PNP-α-L-fucopyranoside] | <0.001 U/ml |
| CC(=O)N[C@H]1[C@@H](Oc2ccc([N+](=O)[O-])cc2)O[C@H](CO)[C@H](O)[C@@H]1O [PNP-N-acetyl-α-D-galactosaminide] | 0.334 U/ml |
| O=[N+]([O-])c1ccc(O[C@H]2O[C@H](CO)[C@@H](O)[C@H](O)[C@H]2O)cc1 [PNP-α-D-glucopyranoside] | <0.001 U/ml |
| CC(=O)N[C@H]1[C@@H](Oc2ccc([N+](=O)[O-])cc2)O[C@H](CO)[C@@H](O)[C@@H]1O [PNP-N-acetyl-α-D-glucosaminide] | <0.001 U/ml |
| O=[N+]([O-])c1ccc(O[C@H]2O[C@H](CO)[C@H](O)[C@H](O)[C@H]2O)cc1 [PNP-α-D-galactopyranoside] | <0.001 U/ml |
| O=[N+]([O-])c1ccc(O[C@@H]2O[C@H](CO)[C@@H](O)[C@H](O)[C@H]2O)cc1 [PNP-β-D-glucopyranoside] | <0.001 U/ml |
| CC(=O)N[C@H]1[C@H](Oc2ccc([N+](=O)[O-])cc2)O[C@H](CO)[C@@H](O)[C@@H]1O [PNP-N-acetyl-β-D-glucosaminide] | <0.001 U/ml |
| CC(=O)NC1C(O)CC(Oc2ccc3c(C)cc(=O)oc3c2)(C(=O)O)OC1C(O)C(O)CO (stereo not drawn) [4MU-N-acetyl-α-neuraminic acid] | <0.001 U/ml |
| O=[N+]([O-])c1ccc(O[C@@H]2O[C@H](CO)[C@H](O)[C@H](O)[C@H]2O)cc1 [PNP-β-D-galactopyranoside] | <0.001 U/ml |
